# In patent US20250034168A1, “NITROGEN-CONTAINING HETEROCYCLIC DERIVATIVE PARP INHIBITOR AND USE THEREOF” (XIZANG HAISCO PHARMACEUTICAL CO., LTD., priority 2021, published 2025):
# Columns and labels:
# [1] = molecular target: PARP-1 enzyme (Homo sapiens (Human), UniProt P09874); assay: PARP-1 enzyme activity test; type: biochemical
# Method: PARP-1 chemical […] detection kit was purchased from BPS Bioscience. The histone solution in the kit was diluted 5× with 1×PBS, and 25 μL of the diluted histone solution was added to a microwell plate and incubated overnight at 4° C. After the incubation, the plate was washed three times with PBST (0.05% Tween-20). 100 μL of the blocking solution was added to the microwell plate and incubated at 25° C. for 90 minutes. After the incubation, the plate was washed three times with PBST. 2.5 μL of compounds at different concentrations diluted in test buffer and 12.5 μL of substrate mixed solution (1.25 μL 10×PARP test buffer; 1.25 μL 10×PARP test mixed solution; 2.5 μL Activated DNA, 7.5 μL double-distilled water) were added to the microwell plate. The PARP-1 enzyme was diluted to 2 ng/μL, 10 μL of the diluent was added to the microwell plate, and the reaction system was incubated at 25° C. for 60 minutes.
# (§1) After the incubation, the plate was washed three times with PBST. Streptavidin-HRP was diluted 50× with a blocking solution, and 25 μL of the diluent was added to the microwell plate and incubated at 25° C. for 30 minutes. After the incubation, the plate was washed three times with PBST. ELISA ECL substrate A and substrate B were mixed at a ratio of 1:1 (v/v), 50 μL of the mixture was added to the microwell plate, and the chemiluminescence value was read.
# The inhibition rate was calculated according to formula 1, where RLUsample was the readout of the compound well, RLUmax was the readout of the solvent control well, and RLUmin was the readout of the control well without the PARP-1 enzyme. Curve fitting was performed by four parameters (log(inhibitor) vs. response—Variable slope) using GraphPad Prism software, and the IC50 value was calculated.
# [2] = molecular target: PARP7 (Homo sapiens (Human), UniProt Q7Z3E1); assay: PARP7 enzyme activity test; type: biochemical
# Method: PARP2 and PARP7 chemical […] detection kits were both purchased from BPS Bioscience. The histone solution in the kit was diluted 5× with 1×PBS, and 25 μL of the diluted histone solution was added to a microwell plate and incubated overnight at 4° C. After the incubation, the plate was washed three times with PBST (0.05% Tween-20). 100 μL of the blocking solution was added to the microwell plate and incubated at 25° C. for 90 minutes. After the incubation, the plate was washed three times with PBST. 2.5 μL of compound 4 diluted in test buffer and 5 μL of substrate mixed solution were added to the microwell plate. 5 μL of the diluted PARP enzyme was added to the microwell plate, and the reaction system was incubated at 25° C. for 60 minutes.
# as §1, with “(v/v), 25” for “(v/v), 50”, “read. […]” for “read.”
# [3] = Pharmacokinetic test in rats; type: in vivo, SD rats
# Method: • 5.1.1 Experimental animals: male SD rats, about 220 g, 6-8 weeks old, 6 rats/compound, purchased from Chengdu Ddossy Experimental Animals Co., Ltd. • 5.1.2 Experimental design: on the day of the test, 6 SD rats were randomly grouped according to their body weight; the animals were fasted with water available for 12 to 14 h one day before the administration, and were fed 4 h after the administration.
# Before and after the administration, 0.15 ml of blood was taken from the orbit of the animals under isoflurane anesthesia and placed in an EDTAK2 centrifuge tube. The blood was centrifuged at 5000 rpm and 4° C. for 10 min to collect plasma. The blood collection time points for the intravenous administration group and intragastric administration group were: 0, 5 min, 15 min, 30 min, 1 h, 2 h, 4 h, 6 h, 8 h, and 24 h. Before analysis and detection, all samples were stored at −80° C., and a quantitative analysis of samples was performed using LC-MS/MS.
# [4] = tested on: MDA-MB-436 subcutaneous transplanted tumor; assay: Mouse MDA-MB-436 subcutaneous in vivo transplanted tumor model; parameters: species or system BALB/c nude mice
# Method: Human breast cancer MDA-MB-436 cells were placed in Leibovitz's L-15 medium (supplemented with 10 μg/mL insulin, 16 μg/mL glutathione, 10% fetal bovine serum and 1% double antibody) and cultured at 37° C. Conventional digestion treatment with trypsin was carried out twice a week for passage. When the cell saturation was 80%-90%, and the number reached the requirement, the cells were collected, counted, and inoculated. BALB/c nude mice (from Beijing Vital River Laboratory Animal Technology Co., Ltd.) were subcutaneously inoculated with 0.2 mL (10×10^6) of MDA-MB-436 cells (plus matrigel, with the volume ratio of 1:1) on the right back. When the average tumor volume reached about 180 mm^3, grouping and administration were performed (marked as Day 0). The solvent group was given 5% DMSO, 30% PEG400 and 65% of 20% sulfobutyl-β-cyclodextrin solution, and the administration group was given compound 14 (Day 0-Day 10:1 mg/kg; Day 11-Day 28:0.1 mg/kg). The administration frequency was once a day, the administration cycle was 29 days, and the drug withdrawal observation period was set to 14 days. After grouping, the tumor diameter was measured twice a week with a vernier caliper. The formula for calculating the tumor volume was: V=0.5×a×b^2, where a and b represented the long and short diameters of the tumor, respectively. The tumor inhibitory effect of compound 14 was evaluated by TGI (%)=[(1−(average tumor volume at the end of administration in the treatment group−average tumor volume at the beginning of administration in the treatment group))/(average tumor volume at the end of treatment in the solvent control group−average tumor volume at the beginning of treatment in the solvent control group)]×100%. The tumor growth curve and the animal body weight change curve were as shown in FIG. 1 and FIG. 2, respectively.
# [5] = male, Sprague-Dawley, iv, rat plasma, i.v. 2.5 mg/kg
# PARP-1 enzyme, sequence (P09874 whole entry): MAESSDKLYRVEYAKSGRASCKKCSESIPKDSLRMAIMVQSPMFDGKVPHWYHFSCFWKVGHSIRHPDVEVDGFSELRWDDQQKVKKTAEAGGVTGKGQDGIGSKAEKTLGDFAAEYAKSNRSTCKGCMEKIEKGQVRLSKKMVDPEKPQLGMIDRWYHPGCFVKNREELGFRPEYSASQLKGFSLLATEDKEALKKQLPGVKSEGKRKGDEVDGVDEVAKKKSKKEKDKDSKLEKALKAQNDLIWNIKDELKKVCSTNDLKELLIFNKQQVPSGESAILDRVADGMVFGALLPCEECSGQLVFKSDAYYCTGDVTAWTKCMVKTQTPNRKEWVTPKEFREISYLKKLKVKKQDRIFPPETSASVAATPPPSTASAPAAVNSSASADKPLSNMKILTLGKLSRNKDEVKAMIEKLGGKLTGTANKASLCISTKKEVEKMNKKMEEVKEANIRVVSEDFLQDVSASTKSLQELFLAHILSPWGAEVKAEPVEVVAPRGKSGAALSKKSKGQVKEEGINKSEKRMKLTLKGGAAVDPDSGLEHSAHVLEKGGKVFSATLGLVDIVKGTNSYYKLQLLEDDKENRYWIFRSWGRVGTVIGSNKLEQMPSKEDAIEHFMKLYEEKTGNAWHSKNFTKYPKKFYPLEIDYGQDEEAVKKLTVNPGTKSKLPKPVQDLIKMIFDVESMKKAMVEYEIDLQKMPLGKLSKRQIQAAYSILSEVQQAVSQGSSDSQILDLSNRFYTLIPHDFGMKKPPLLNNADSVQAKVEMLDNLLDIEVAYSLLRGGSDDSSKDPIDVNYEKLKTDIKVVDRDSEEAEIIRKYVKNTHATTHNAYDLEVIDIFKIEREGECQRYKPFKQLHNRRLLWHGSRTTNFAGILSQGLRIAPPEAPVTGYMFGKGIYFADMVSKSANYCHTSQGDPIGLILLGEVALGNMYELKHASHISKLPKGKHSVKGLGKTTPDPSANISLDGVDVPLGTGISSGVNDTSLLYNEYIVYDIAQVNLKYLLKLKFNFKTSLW
# PARP7, sequence (Q7Z3E1 whole entry): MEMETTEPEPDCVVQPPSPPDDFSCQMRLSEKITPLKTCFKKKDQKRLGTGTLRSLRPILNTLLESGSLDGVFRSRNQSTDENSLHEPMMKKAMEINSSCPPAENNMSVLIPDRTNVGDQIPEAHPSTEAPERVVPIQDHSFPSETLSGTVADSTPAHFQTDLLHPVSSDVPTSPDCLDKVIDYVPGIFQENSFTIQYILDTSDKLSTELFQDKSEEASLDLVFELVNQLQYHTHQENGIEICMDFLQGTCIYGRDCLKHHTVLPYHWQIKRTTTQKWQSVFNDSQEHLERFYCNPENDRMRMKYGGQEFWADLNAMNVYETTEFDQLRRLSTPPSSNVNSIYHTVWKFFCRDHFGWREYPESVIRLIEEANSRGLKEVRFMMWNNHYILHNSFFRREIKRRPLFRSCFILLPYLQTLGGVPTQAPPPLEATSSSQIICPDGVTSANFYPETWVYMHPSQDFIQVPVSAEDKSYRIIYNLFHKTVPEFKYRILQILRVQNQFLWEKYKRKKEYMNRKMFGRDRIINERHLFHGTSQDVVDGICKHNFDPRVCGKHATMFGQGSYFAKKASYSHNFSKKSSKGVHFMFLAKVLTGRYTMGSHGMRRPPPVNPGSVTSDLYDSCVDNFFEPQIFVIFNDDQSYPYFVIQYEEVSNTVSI
structure (smiles),measurement,setting,value
"CCc1cc2ncc(CN3CC=C(c4ccc(C(=O)NC)nc4)CC3)cc2[nH]c1=O [Compound 14, 1′-((7-ethyl-6-oxo-5,6-dihydro-1,5-naphthyridin-3-yl)methyl)-N-methyl-1′,2′,3′,6′-tetrahydro-[3,4′-bipyridine]-6-carboxamide]",IC50,[1],0.59 nM
same,IC50,[2],40 nM
same,AUC(0-t),[3]; [5],84.2 µg·h/mL
same,clearance,[3]; [5],0.494 mL/min/kg
same,Vd,"[3]; male, Sprague-Dawley, iv, rat plasma, i.v. 2.5 mg/kg, read-out: Vdss",0.164 L/kg
same,AUC(0-t),"[3]; male, Sprague-Dawley, po, rat plasma, i.g. 10 mg/kg",248 µg·h/mL
same,F,"[3]; rat, i.g. 10 mg/kg",73.8%
same,body weight of the animals,"[4]; Day 0-Day 10: 1 mg/kg, Day 11-Day 28: 0.1 mg/kg, once a day",no significant decrease
same,TGI,"[4]; after 28 days of administration, Day 0-Day 10: 1 mg/kg, Day 11-Day 28: 0.1 mg/kg, once a day",121%
same,tumor growth after drug withdrawal,[4]; drug withdrawal observation period 14 days,did not grow again
